Experimental data from patent US20200216439A1, “HETERO-1,5,6,7-TETRAHYDRO-4H-INDOL-4-ONES” (BAYER PHARMA AKTIENGESELLSCHAFT, priority 2015, published 2020).

Target: T1, catalytic domain of human Bub1 (amino acids 704-1085) (Homo sapiens, UniProt O43683)
T1 construct: catalytic domain of human Bub1 (amino acids 704-1085); His6 (N); made in house; host or cells: Hi5 insect cells
Test: Bub1 kinase assay (TR-FRET)
Type: biochemical
Settings: TR-FRET; ATP 10 μM, peptide substrate 1 μM; 60 min at 22° C.; average or median if tested more than once; read-out: Inhibition of Bub1 kinase IC50
Description: Bub1-inhibitory activities of compounds described in the present invention were quantified using a time-resolved fluorescence energy transfer (TR-FRET) kinase assay which measures phosphorylation of the synthetic peptide Biotin-Ahx-VLLPKKSFAEPG (C-terminus in amide form), purchased from e.g. Biosyntan (Berlin, Germany) by the (recombinant) catalytic domain of human Bub1 (amino acids 704-1085), expressed in Hi5 insect cells with an N-terminal His6-tag and purified by affinity—(Ni-NTA) and size exclusion chromatography.
In a typical assay 11 different concentrations of each compound (0.1 nM, 0.33 nM, 1.1 nM, 3.8 nM, 13 nM, 44 nM, 0.15 μM, 0.51 μM, 1.7 μM, 5.9 μM and 20 μM) were tested in duplicate within the same microtiter plate. To this end, 100-fold concentrated compound solutions (in DMSO) were previously prepared by serial dilution (1:3.4) of 2 mM stocks in a clear low volume 384-well source microtiter plate (Greiner Bio-One, Frickenhausen, Germany), from which 50 nl of compounds were transferred into a black low volume test microtiter plate from the same supplier. Subsequently, 2 μL of Bub1 (the final concentration of Bub1 was adjusted depending on the activity of the enzyme lot in order to be within the linear dynamic range of the assay: typically ˜200 ng/mL were used) in aqueous assay buffer [50 mM Tris/HCl pH 7.5, 10 mM magnesium chloride (MgCl2), 200 mM potassium chloride (KCl), 1.0 mM dithiothreitol (DTT), 0.1 mM sodium ortho-vanadate, 1% (v/v) glycerol, 0.01% (w/v) bovine serum albumine (BSA), 0.005% (v/v) Trition X-100 (Sigma), 1× Complete EDTA-free protease inhibitor mixture (Roche)] were added to the compounds in the test plate and the mixture was incubated for 15 min at 22° C. to allow pre-equilibration of the putative enzyme-inhibitor complexes before the start of the kinase reaction, which was initiated by the addition of 3 μL 1.67-fold concentrated solution (in assay buffer) of adenosine-tri-phosphate (ATP, 10 μM final concentration) and peptide substrate (1 μM final concentration). The resulting mixture (5 μL final volume) was incubated at 22° C. during 60 min., and the reaction was stopped by the addition of 5 μL of an aqueous EDTA-solution (50 mM EDTA, in 100 mM HEPES pH 7.5 and 0.2% (w/v) bovine serum albumin) which also contained the TR-FRET detection reagents (0.2 μM streptavidin-XL665 [Cisbio Bioassays, Codolet, France] and 1 nM anti-phospho-Serine antibody [Merck Millipore, cat. #35-002] and 0.4 nM LANCE EU-W1024 labeled anti-mouse IgG antibody [Perkin-Elmer, product no. AD0077, alternatively a Terbium-cryptate-labeled anti-mouse IgG antibody from Cisbio Bioassays can be used]). The stopped reaction mixture was further incubated 1 h at 22° C. in order to allow the formation of complexes between peptides and detection reagents. Subsequently, the amount of product was evaluated by measurement of the resonance energy transfer from the Eu-chelate-antibody complex recognizing the Phosphoserine residue to the streptavidin-XL665 bound to the biotin moiety of the peptide. To this end, the fluorescence emissions at 620 nm and 665 nm after excitation at 330-350 nm were measured in a TR-FRET plate reader, e.g. a Rubystar or Pherastar (both from BMG Labtechnologies, Offenburg, Germany) or a Viewlux (Perkin-Elmer) and the ratio of the emissions (665 nm/[…]) was taken as indicator for the amount of phosphorylated substrate. The data were normalised using two sets of control wells for high—(=enzyme reaction without inhibitor=0%=Minimum inhibition) and low—(=all assay components without enzyme=100%=Maximum inhibition) Bub1 activity. IC50 values were calculated by fitting the normalized inhibition data to a 4-parameter logistic equation (Minimum, Maximum, IC50, Hill; Y=Max+(Min−Max)/(1+(X/IC50)Hill)).

T1 sequence (O43683 704-1085): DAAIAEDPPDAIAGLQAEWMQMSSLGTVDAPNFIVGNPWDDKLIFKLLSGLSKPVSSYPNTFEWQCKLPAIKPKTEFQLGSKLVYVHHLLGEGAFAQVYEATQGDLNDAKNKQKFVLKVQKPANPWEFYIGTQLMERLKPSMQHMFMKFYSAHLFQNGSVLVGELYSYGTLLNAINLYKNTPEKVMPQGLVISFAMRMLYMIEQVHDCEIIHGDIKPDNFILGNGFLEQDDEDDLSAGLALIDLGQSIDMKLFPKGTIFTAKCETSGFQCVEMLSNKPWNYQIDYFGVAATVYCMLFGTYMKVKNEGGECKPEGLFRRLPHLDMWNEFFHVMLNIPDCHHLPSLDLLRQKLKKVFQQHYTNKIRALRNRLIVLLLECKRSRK

| SMILES | IC50 [nM] |
| --- | --- |
| CC(C)OC(=O)N1CC(=O)c2c([nH]c(-c3ccnc(NC(=O)[C@@H]4C[C@@H]4F)c3)c2Nc2ccccc2)C1 [Example 216, Propan-2-yl 2-[2-([(1S,2S)-2-fluorocyclopropyl]carbonylamino)pyridin-4-yl]-4-oxo-3-(phenylamino)-1,4,5,7-tetrahydro-6H-pyrrolo[2,3-c]pyridine-6-carboxylate] | 6 |
| CC(=O)Nc1cc(-c2[nH]c3c(c2Nc2ccccc2)C(=O)CN(S(=O)(=O)C(C)C)C3)ccn1 [Example 171, N-{4-[3-Anilino-6-(isopropylsulfonyl)-4-oxo-4,5,6,7-tetrahydro-1H-pyrrolo[2,3-c]pyridin-2-yl]pyridin-2-yl}acetamide] | 3 |
| CC(=O)Nc1cc(-c2[nH]c3c(c2Nc2ccc(F)cc2)C(=O)CN(C(=O)OC(C)(C)C)C3)ccn1 [Example 297, tert-Butyl 2-(2-acetamidopyridin-4-yl)-3-[(4-fluorophenyl)amino]-4-oxo-1,4,5,7-tetrahydro-6H-pyrrolo[2,3-c]pyridine-6-carboxylate] | 55 |
| CS(=O)(=O)N1CC(=O)c2c([nH]c(-c3ccncc3OCC(F)(F)F)c2Nc2ccccc2)C1 [Example 233, 6-(Methylsulfonyl)-3-(phenylamino)-2-[3-(2,2,2-trifluoroethoxy)pyridin-4-yl]-1,5,6,7-tetrahydro-4H-pyrrolo[2,3-c]pyridin-4-one] | 36 |
| Cn1c2c(c(Nc3ccccc3)c1-c1ccncc1)C(=O)CN(S(C)(=O)=O)C2 [Example 64, 1-Methyl-6-(methylsulfonyl)-3-(phenylamino)-2-(pyridin-4-yl)-1,5,6,7-tetrahydro-4H-pyrrolo[2,3-c]pyridin-4-one] | 1400 |
| COC(=O)N1CC(=O)c2c([nH]c(-c3ccncc3OC)c2Nc2ccccc2)C1 [Example 104, Methyl 2-(3-methoxypyridin-4-yl)-4-oxo-3-(phenylamino)-1,4,5,7-tetrahydro-6H-pyrrolo[2,3-c]pyridine-6-carboxylate] | 9 |
| CC(=O)Nc1cc(-c2[nH]c3c(c2Nc2ccccc2)C(=O)CN(C(=O)c2cnc[nH]2)C3)ccn1 [Example 113, N-{4-[6-(1H-Imidazol-5-ylcarbonyl)-4-oxo-3-(phenylamino)-4,5,6,7-tetrahydro-1H-pyrrolo[2,3-c]pyridin-2-yl]pyridin-2-yl}acetamide] | 34 |

Now from value to molecule:

| IC50 [nM] | SMILES |
| --- | --- |
| 4 | O=C1CN(S(=O)(=O)CCC(F)(F)F)Cc2[nH]c(-c3ccncc3)c(Nc3ccccc3)c21 [Example 69, 3-(phenylamino)-2-(pyridin-4-yl)-6-[(3,3,3-trifluoropropyl)sulfonyl]-1,5,6,7-tetrahydro-4H-pyrrolo[2,3-c]pyridin-4-one] |
| 4 | O=C1CN(C(=O)N2CCCC2)Cc2[nH]c(-c3ccncc3)c(Nc3ccccc3)c21 [Example 92, 3-(phenylamino)-2-(pyridin-4-yl)-6-(pyrrolidin-1-ylcarbonyl)-1,5,6,7-tetrahydro-4H-pyrrolo[2,3-c]pyridin-4-one] |
| 8 | O=C1CN(S(=O)(=O)CC2CCOCC2)Cc2[nH]c(-c3ccncc3)c(Nc3ccccc3)c21 [Example 71, 3-(phenylamino)-2-(pyridin-4-yl)-6-[(tetrahydro-2H-pyran-4-ylmethyl)sulfonyl]-1,5,6,7-tetrahydro-4H-pyrrolo[2,3-c]pyridin-4-one] |
| 9 | CCOC(=O)N1CC(=O)c2c([nH]c(-c3ccnc(NC(C)=O)c3)c2Nc2ccccc2)C1 [Example 183, Ethyl 2-(2-acetamidopyridin-4-yl)-3-anilino-4-oxo-1,4,5,7-tetrahydro-6H-pyrrolo[2,3-c]pyridine-6-carboxylate] |
| 12 | O=C1CN(C(=O)NCC(F)F)Cc2[nH]c(-c3ccncc3)c(Nc3ccccc3)c21 [Example 83, N-(2,2-Difluoroethyl)-4-oxo-3-(phenylamino)-2-(pyridin-4-yl)-1,4,5,7-tetrahydro-6H-pyrrolo[2,3-c]pyridine-6-carboxamide] |
